The source of these data is patent publication US7459453B2, “Pyridazin-3(2H)-one derivatives as PDE4 inhibitors” (Laboratorios Almirall, S.A., priority 2002, dated 2008).

SMILES strings stand for the structures.

This experiment relates to PDE4. Description: PDE4 Assay Procedure ([3H]-cAMP SPA). In kind it is biochemical. As to conditions: 15 nM [3H]-cAMP, SPA beads, 1 hour at room temperature; compounds tested from 10 μM to 10 pM. The protocol: Compounds to be tested were resuspended in DMSO at a stock concentration of 1 mM. The compounds were tested at different concentrations varying from 10 μM to 10 pM to calculate an IC50. These dilutions were done in 96-well plates. In some cases, plates containing diluted compounds were frozen before being assayed. In these cases, the plates were thawed at room temperature and stirred for 15 minutes.
Ten microliters of the diluted compounds were poured into a “low binding” assay plate. Eighty microliters of reaction mixture containing 50 mM Tris pH 7.5, 8.3 mM MgCl2, 1.7 mM EGTA, and 15 nM [3H]-cAMP were added to each well. The reaction was initiated by adding ten microliters of a solution containing PDE4. The plate was then incubated under stirring for 1 hour at room temperature. After incubation the reaction was stopped with 50 microliters of SPA beads, and the reaction was allowed to incubate for another 20 minutes at room temperatures before measuring radioactivity using standard instrumentation.
The reaction mixture was prepared by adding 90 ml of H2O to 10 ml of 10× assay buffer (500 mM Tris pH 7.5, 83 mM MgCl2, 17 mM EGTA), and 40 microliters 1 μCi/μL [3H]-cAMP. SPA beads solution was prepared by adding 500 mg to […] H2O for a final concentration of 20 mg/ml beads and 18 mM zinc sulphate.
Consider `CCn1nc(-c2ccccc2)c(C(C)=O)c(Nc2cc(F)c(F)c(F)c2)c1=O` [Example 264, 5-Acetyl-2-ethyl-6-phenyl-4-[(3,4,5-trifluorophenyl)amino]pyridazin-3(2H)-one], for which the IC50 amounted to 11 nM.
The result for `CCn1nc(-c2ccccc2)c(C(C)=O)c(Nc2cccc(C(N)=O)c2)c1=O` [Example 232, 3-[(5-Acetyl-2-ethyl-3-oxo-6-phenyl-2,3-dihydropyridazin-4-yl)amino]benzamide] reads 13 nM; that for `CCn1nc(-c2ccccc2)c(C(C)=O)c(Nc2ccc(C#N)cc2)c1=O` [Example 231, 4-[(5-Acetyl-2-ethyl-3-oxo-6-phenyl-2,3-dihydropyridazin-4-yl)amino]benzonitrile], 20 nM; that for `CCn1nc(-c2ccccc2)c(C(C)=O)c(Nc2cccc(Cl)c2)c1=O` [Example 52, 5-Acetyl-4-[(3-chlorophenyl)amino]-2-ethyl-6-phenylpyridazin-3(2H)-one], 12 nM.
The same measure for `CCn1nc(-c2ccccc2)c(C(C)=O)c(Nc2ccc(F)c(Cl)c2)c1=O` [Example 190, 5-Acetyl-4-[(3-chloro-4-fluorophenyl)amino]-2-ethyl-6-phenylpyridazin-3(2H)-one]: 9.3 nM.
The result for `CCn1nc(-c2ccccc2)c(C(C)=O)c(Nc2cccc(C#N)c2)c1=O` [Example 72, 3-[(5-Acetyl-2-ethyl-3-oxo-6-phenyl-2,3-dihydropyridazin-4-yl)amino]benzonitrile] reads 6 nM; that for `CC(=O)c1c(-c2ccccc2)nn(CC2CC2)c(=O)c1Nc1cccc(F)c1` [Example 45, 5-Acetyl-2-(cyclopropylmethyl)-4-[(3-fluorophenyl)amino]-6-phenylpyridazin-3(2H)-one], 7.8 nM.
Take `CCn1nc(-c2cccc(F)c2)c(C(C)=O)c(Nc2ccc(CO)cc2)c1=O` [Example 176, 5-Acetyl-2-ethyl-6-(3-fluorophenyl)-4-{[4-(hydroxymethyl)phenyl]amino}pyridazin-3(2H)-one]: the IC50 was 19 nM.
The same measure for `CCn1nc(-c2cccc(F)c2)c(C(C)=O)c(Nc2cccc(F)c2)c1=O` [Example 91, 5-Acetyl-2-ethyl-4-[(3-fluorophenyl)amino]-6-(3-fluorophenyl)pyridazin-3(2H)-one]: 5.9 nM.
The result for `CCn1nc(-c2ccccc2)c(C(C)=O)c(Nc2ccc(C(=O)O)cc2)c1=O` [Example 50, 4-[(5-Acetyl-2-ethyl-3-oxo-6-phenyl-2,3-dihydropyridazin-4-yl)amino]benzoic acid] reads 14 nM; that for `CCn1nc(-c2ccccc2)c(C(C)=O)c(Nc2cccc(F)c2)c1=O` [Example 1, 5-Acetyl-2-ethyl-4-[(3-fluorophenyl)amino]-6-phenylpyridazin-3(2H)-one], 7.7 nM.
`CCn1nc(-c2ccc(F)cc2)c(C(C)=O)c(Nc2ccc(CO)cc2)c1=O` [Example 181, 5-Acetyl-2-ethyl-6-(4-fluorophenyl)-4-{[4-(hydroxymethyl)phenyl]amino}pyridazin-3(2H)-one] had an IC50 of 25 nM.
The same measure for `CCn1nc(-c2ccccc2)c(C(C)=O)c(Nc2c(F)cc(F)cc2F)c1=O` [Example 263, 5-Acetyl-2-ethyl-6-phenyl-4-[(2,4,6-trifluorophenyl)amino]pyridazin-3(2H)-one]: 15 nM; for `CCn1nc(-c2cccc(Cl)c2)c(C(C)=O)c(Nc2ccc(C(=O)O)cc2)c1=O` [Example 86, 4-[5-Acetyl-6-(3-chlorophenyl)-2-ethyl-3-oxo-2,3-dihydropyridazin-4-ylamino]benzoic acid]: 14 nM.
The result for `CC(=O)c1c(-c2ccccc2)nn(C)c(=O)c1Nc1cc(F)cc(F)c1` [Example 39, 5-Acetyl-4-[(3,5-difluorophenyl)amino]-2-methyl-6-phenylpyridazin-3(2H)-one] reads 16 nM; that for `CCn1nc(-c2ccccc2)c(C(C)=O)c(Nc2ccccc2Cl)c1=O` [Example 13, 5-Acetyl-4-[(2-chlorophenyl)amino]-2-ethyl-6-phenylpyridazin-3(2H)-one], 9.3 nM.
The result for `CCn1nc(-c2cccc([N+](=O)[O-])c2)c(C(C)=O)c(Nc2cccc3ccccc23)c1=O` [Example 97, 5-Acetyl-2-ethyl-4-(naphthalen-1-ylamino)-6-(3-nitrophenyl)pyridazin-3(2H)-one] reads 0.5 nM; that for `CCn1nc(-c2ccccc2)c(C(=O)OCc2ccccc2)c(Nc2cccc(Cl)c2)c1=O` [Example 274, Benzyl 5-[(3-chlorophenyl)amino]-1-ethyl-6-oxo-3-phenyl-1,6-dihydropyridazine-4-carboxylate], 5.5 nM.
On to `CCn1nc(-c2ccccc2)c(C(C)=O)c(Nc2cccc3ccccc23)c1=O` [Example 8, 5-Acetyl-2-ethyl-4-(1-naphthylamino)-6-phenylpyridazin-3(2H)-one], for which the IC50 amounted to 2 nM.
With `CCn1nc(-c2cccc(F)c2)c(C(C)=O)c(Nc2cccc(Cl)c2)c1=O` [Example 92, 5-Acetyl-4-[(3-chlorophenyl)amino]-2-ethyl-6-(3-fluorophenyl)pyridazin-3(2H)-one], half-maximal inhibition (IC50) required 8.7 nM.
The same measure for `CC(=O)c1c(-c2ccccc2)nn(CC2CC2)c(=O)c1Nc1cccc(Cl)c1` [Example 46, 5-Acetyl-4-[(3-chlorophenyl)amino]-2-(cyclopropylmethyl)-6-phenylpyridazin-3(2H)-one]: 8.9 nM; for `CCn1nc(-c2ccccc2)c(C(=O)CCc2ccccc2)c(Nc2cccc(Cl)c2)c1=O` [Example 120, 4-[(3-Chlorophenyl)amino]-2-ethyl-6-phenyl-5-(3-phenylpropanoyl)pyridazin-3(2H)-one]: 7.1 nM; for `CCn1nc(-c2ccc(SC)cc2)c(C(C)=O)c(Nc2ccc(C(=O)O)cc2)c1=O` [Example 23, 4-({5-Acetyl-2-ethyl-6-[4-(methylthio)phenyl]-3-oxo-2,3-dihydropyridazin-4-yl}amino)benzoic acid]: 9.5 nM.
The same measure for `CCn1nc(-c2ccc([S+](C)[O-])cc2)c(C(C)=O)c(Nc2ccccc2C)c1=O` (centres unmarked) [Example 31, 5-Acetyl-2-ethyl-4-[(2-methylphenyl)amino]-6-[4-(methylsulphinyl)phenyl]pyridazin-3(2H)-one]: 20 nM; for `CCn1nc(-c2cccc(Cl)c2)c(C(C)=O)c(Nc2cccc(F)c2)c1=O` [Example 88, 5-Acetyl-6-(3-chlorophenyl)-2-ethyl-4-[(3-fluorophenyl)amino]pyridazin-3(2H)-one]: 6.1 nM.
The result for `CC(=O)c1c(-c2ccccc2)nn(CC2CC2)c(=O)c1Nc1cc(F)cc(F)c1` [Example 109, 5-Acetyl-2-cyclopropylmethyl-4-(3,5-difluoro-phenylamino)-6-phenyl-2H-pyridazin-3-one] reads 0.26 nM.
